By IC50 is commonly meant the concentration at which inhibition is half-maximal. Low values mean greater potency in that assay, high ones weaker potency in that assay. Broadly, the stoichiometry N is a count of units in the complex or per binding partner.

The record followed here is paper PMC10167348, “Structural mechanisms of TRPM7 activation and inhibition” (Nature Communications, 2023).

The target in one data set is T1, wild-type TRPM7 (Mus musculus, UniProt Q923J1).
T1 construct: expressed in transfected cells; host or cells: HEK 293T
T1 sequence (Q923J1 whole entry): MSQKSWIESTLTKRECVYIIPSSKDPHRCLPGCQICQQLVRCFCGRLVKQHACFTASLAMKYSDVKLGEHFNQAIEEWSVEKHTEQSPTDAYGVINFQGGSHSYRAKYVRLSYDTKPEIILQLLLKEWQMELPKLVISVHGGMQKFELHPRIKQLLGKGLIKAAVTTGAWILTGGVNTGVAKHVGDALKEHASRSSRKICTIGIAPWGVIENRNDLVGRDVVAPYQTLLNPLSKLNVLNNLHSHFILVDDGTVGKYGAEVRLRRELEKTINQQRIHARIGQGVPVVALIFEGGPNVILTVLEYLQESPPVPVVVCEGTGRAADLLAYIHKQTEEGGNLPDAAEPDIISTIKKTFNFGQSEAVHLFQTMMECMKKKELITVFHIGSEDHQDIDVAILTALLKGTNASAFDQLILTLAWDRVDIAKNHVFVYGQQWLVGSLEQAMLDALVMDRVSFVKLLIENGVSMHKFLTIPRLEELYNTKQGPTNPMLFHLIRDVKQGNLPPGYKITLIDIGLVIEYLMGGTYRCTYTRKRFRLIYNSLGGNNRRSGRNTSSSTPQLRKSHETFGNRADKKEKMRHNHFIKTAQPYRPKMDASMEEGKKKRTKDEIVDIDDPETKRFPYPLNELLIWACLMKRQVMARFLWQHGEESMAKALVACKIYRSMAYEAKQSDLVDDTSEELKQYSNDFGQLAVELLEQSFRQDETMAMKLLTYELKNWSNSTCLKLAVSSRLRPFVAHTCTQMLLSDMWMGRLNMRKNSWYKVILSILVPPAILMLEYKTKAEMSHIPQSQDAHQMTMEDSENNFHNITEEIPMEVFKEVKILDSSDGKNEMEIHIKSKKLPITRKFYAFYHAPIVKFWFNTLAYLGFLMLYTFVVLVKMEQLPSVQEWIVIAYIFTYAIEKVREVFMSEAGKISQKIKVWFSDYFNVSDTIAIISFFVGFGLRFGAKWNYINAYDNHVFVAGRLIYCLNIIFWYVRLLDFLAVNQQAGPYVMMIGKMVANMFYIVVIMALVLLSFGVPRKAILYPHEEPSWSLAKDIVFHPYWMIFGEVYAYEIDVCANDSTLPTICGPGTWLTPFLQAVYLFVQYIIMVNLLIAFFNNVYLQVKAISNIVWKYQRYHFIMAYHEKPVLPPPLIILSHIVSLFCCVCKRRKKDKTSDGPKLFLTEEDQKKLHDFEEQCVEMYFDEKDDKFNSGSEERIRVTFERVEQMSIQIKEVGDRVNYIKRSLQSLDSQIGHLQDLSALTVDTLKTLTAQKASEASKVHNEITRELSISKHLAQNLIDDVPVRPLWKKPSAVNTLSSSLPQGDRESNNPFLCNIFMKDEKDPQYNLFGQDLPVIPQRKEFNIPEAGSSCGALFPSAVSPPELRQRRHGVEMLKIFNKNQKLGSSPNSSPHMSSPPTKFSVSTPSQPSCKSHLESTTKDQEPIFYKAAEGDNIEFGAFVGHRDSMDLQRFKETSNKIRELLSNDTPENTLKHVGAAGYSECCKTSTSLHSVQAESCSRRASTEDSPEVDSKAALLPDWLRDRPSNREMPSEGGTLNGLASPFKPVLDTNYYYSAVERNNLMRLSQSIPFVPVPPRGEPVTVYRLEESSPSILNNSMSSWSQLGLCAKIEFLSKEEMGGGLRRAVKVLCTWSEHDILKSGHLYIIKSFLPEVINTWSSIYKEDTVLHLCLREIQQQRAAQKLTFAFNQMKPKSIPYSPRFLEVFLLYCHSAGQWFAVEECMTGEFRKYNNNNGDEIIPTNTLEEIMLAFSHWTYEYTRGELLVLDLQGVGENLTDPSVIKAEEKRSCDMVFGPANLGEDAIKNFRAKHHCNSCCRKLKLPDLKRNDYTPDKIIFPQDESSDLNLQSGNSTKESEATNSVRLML
The data set is described as follows: Whole-cell patch-clamp recordings in HEK 293T cells. It is filed as cell-based. As to conditions: 10 µM inhibitor, 450-s exposure, amplitude at +80 mV. The method, then: Patch-clamp experiments were performed as reported previously, with a few modifications[69],[70]. HEK 293T cells grown in 35-mm dishes to ~60% confluence were transiently transfected with Trpm7 cDNAs in the pIRES2-EGFP vector (2 µg/dish). Patch-clamp experiments were conducted 18–22 h after transfection with cells displaying EGFP fluorescence. Whole-cell currents were recorded using an EPC10 patch-clamp amplifier and PatchMaster software (Version V2x69, Harvard Bioscience). Voltages were corrected for a liquid junction potential of 10 mV. Currents were elicited by voltage ramps from –100 mV to +100 mV over 50 ms acquired at 0.5 Hz. The inward and outward current amplitudes were measured at –80 mV and +80 mV and were normalized to the cell size as pA/pF. The capacitance was measured using the automated capacitance cancellation function of EPC10. The standard extracellular solution contained 140 mM NaCl, 2.8 mM KCl, 1 mM CaCl2, 2 mM MgCl2, 10 mM HEPES-NaOH, and 11 mM glucose (all from Sigma-Aldrich). Solutions were adjusted to pH 7.2 using an FE20 pH meter (Mettler Toledo) and to 290 mOsm using a Vapro 5520 osmometer (Wescor Inc). […] For the experiment with naltriben, the intracellular solution contained 120 mM Cs-glutamate, 8 mM NaCl, 10 mM Cs-EGTA, 1.5 mM MgCl2, and 10 mM HEPES-CsOH. The intracellular solution was also adjusted to pH 7.2 and 290 mOsm. Data are presented as the mean ± SEM Unless indicated otherwise, data were compared by unpaired t-test (GraphPad Prism 8.4.0). For multiple comparisons, ordinary one-way ANOVA (GraphPad Prism 8.4.0) was used. Significance was accepted at P ≤ 0.05.
A general note: In patch-clamp work, channel activity is measured electrically.

The target of a further data set is T2, TRPM7-M991A (Mus musculus, UniProt Q923J1, M991A).
T2 construct: expressed in transfected cells; host or cells: HEK 293T
T2 sequence (Q923J1 whole entry M991A): as the sequence (Q923J1 whole entry) above, with M991A counted along it
Nature of the data set: Aequorin-based Ca2+ influx assay, inhibition of TRPM7-mediated Ca2+ influx. It is filed as cell-based. The note with it: for sensitivity of the mutant to the inhibitor: TRPM7-M991A. The method, then:
(§1) Measurements of [Ca^2+]i were performed as reported previously with several modifications[2],[52],[54]. HEK 293T cells (mycoplasma test negative, ATCC #CRL3216) were maintained at 37 °C and 5% CO2 in DMEM supplemented with 10% fetal calf serum, 100 µg/ml streptomycin and 100 U/ml penicillin (all from Thermo Fisher Scientific). Cells cultured in six-well plates (~60% confluence) were transfected with 2 µg/dish Trpm7 plasmid DNA and 0.1 µg/dish pG5A plasmid DNA encoding eGFP fused to Aequorea victoria aequorin, using Lipofectamine 2000 (Thermo Fisher Scientific). Twenty-four hours after transfection, the cells were washed with Mg^2+-free HEPES-buffered saline (Mg^2+-free HBS) containing 140 mM NaCl, 6 mM KCl, 0.5 mM CaCl2, 10 mM HEPES (pH 7.4) and 5 mM glucose, and mechanically resuspended in the Mg^2+-free HBS. For reconstitution of aequorin, cell suspensions were incubated with 5 µM coelenterazine (Biaffin GmbH) in the Mg^2+-free HBS for 30 min at room temperature. Cells were washed twice by centrifugation at 600 rpm for 5 min (Heraeus Pico 17 microcentrifuge, Thermo Fisher Scientific), resuspended in the Mg^2+-free HBS and aliquoted into 96-well plates (1 × 10^5 cells per well). Luminescence was detected at room temperature using a FLUOstar OPTIMA microplate reader (BMG LABTECH GmbH). To monitor the NS8593- and VER155008-induced inhibition of TRPM7-mediated Ca^2+ influx, the extracellular concentration of Ca^2+ was increased to 5 mM by injecting the CaCl2-containing Mg^2+-free HBS in the absence or presence of the inhibitors. […] To study activation by naltriben, TRPM7-transfected cells were exposed to Mg^2+-free HBS containing different concentrations of the agonist. The experiments were terminated by lysing cells with 0.1% (v/v) Triton X-100 in the Mg^2+-free HBS to record the total bioluminescence. The bioluminescence rates (counts/s) were analyzed at 1-s intervals and calibrated as [Ca^2+]i values using the following equation:1 p[Ca^2+]i=0.332588(−log(k))+5.5593 where k represents the rate of aequorin consumption, i.e., counts/s divided by the total number of counts.
(§2) To determine the IC50 values for NS8593 and VER155008 (EC50 for naltriben), the data were fitted with the following logistic equation:2 Ec=Emin+Emax+Emin/1+c^h/IC50^h where E(c) is the functional effect at the concentration c of the compound, Emin is the minimal effect, Emax is the maximal effect, IC50 (EC50) is the concentration of the compound that produces the half-maximal effect, and h is the Hill coefficient. Fitting of dose-response curves was performed using GraphPad Prism 8.4.0. Data are presented as the mean ± SEM.

The next data set concerns the target T3, TRPM7-A981L (Mus musculus, UniProt Q923J1, A981L).
T3 construct: expressed in transfected cells; host or cells: HEK 293T
The description is as above. The note with it: antagonist, mean ± SEM. It is filed as cell-based. The method, then:
as §1, §2

In a further data set the target is T4, TRPM7-W1111A (Mus musculus, UniProt Q923J1, W1111A).
T4 construct: expressed in transfected cells; host or cells: HEK 293T
T4 sequence (Q923J1 whole entry W1111A): as the sequence (Q923J1 whole entry) above, with W1111A counted along it
The description is as above. It counts as cell-based. As to conditions: antagonist, mean ± SEM. On the procedure: as §1, §2

The next data set concerns the target T5, TRPM7 WT (Mus musculus, UniProt Q923J1).
T5 construct: expressed in transfected cells; host or cells: HEK 293T
The description is as above. It is filed as cell-based. The note with it: antagonist, mean ± SEM. The method, then:
as §1, §2

A further data set concerns the target T6, TRPM7-A981V (Mus musculus, UniProt Q923J1, A981V).
T6 construct: expressed in transfected cells; host or cells: HEK 293T
Described as above. It is filed as cell-based. The note with it: antagonist, mean ± SEM. The method, then:
as §1, §2

The next data set deals with T7, TRPM7-N1098Q (Mus musculus, UniProt Q923J1, N1098Q).
T7 construct: expressed in transfected cells; host or cells: HEK 293T
T7 sequence (Q923J1 whole entry N1098Q): as the sequence (Q923J1 whole entry) above, with N1098Q counted along it
The description is as above. It counts as cell-based. The note with it: N1098Q, antagonist, mean ± SEM. The method, then:
as §1, §2

Data set [1] concerns the molecule itself. The data set is described as follows: cryo-EM structure; single-particle cryo-EM of purified TRPM7 in GDN or in MSP2N2 lipid nanodiscs (POPC:POPE:POPG), 150 mM NaCl, 20 mM Tris pH 8.0; apo or with naltriben, VER155008 or NS8593; final refinement with C4 symmetry.

Residue numbers refer to the chain shown, from its start. Names may count otherwise.

T5 sequence (Q923J1 whole entry): as the sequence (Q923J1 whole entry) above
T6 sequence (Q923J1 whole entry A981V): as the sequence (Q923J1 whole entry) above, with A981V counted along it
T3 sequence (Q923J1 whole entry A981L): as the sequence (Q923J1 whole entry) above, with A981L counted along it

In the case of `N#Cc1ccc(COC[C@H]2O[C@@H](n3c(NCc4ccc(Cl)c(Cl)c4)nc4c(N)ncnc43)[C@H](O)[C@@H]2O)cc1` [VER155008], the “amplitude of TRPM7-mediated currents in the presence of inhibitor” value at wild-type TRPM7 is on record as “greatly reduced”. In addition, the 50% inhibitory concentration (IC50) entry against TRPM7-M991A (M991A, antagonist, no added second inhibitor, mean ± SEM) was “not feasible to calculate the IC50 value”; against TRPM7-A981L, roughly 25 µM; on TRPM7-W1111A, roughly 10 µM; against TRPM7 WT, 0.23 ± 0.03 µM; on TRPM7-A981V, “not feasible to calculate the IC50 value”; against TRPM7-N1098Q, 1.71 ± 0.25 µM. Moreover, the “sensitivity of the mutant to the inhibitor” value at TRPM7-M991A (0.1-10 μM VER155008 (response to reviewers)) is on record as “no sensitivity”; on TRPM7-M991A (1–10 µM VER), “not sensitive”. Also, the Hill coefficient result on TRPM7 WT is reported as “–2.07 ± 0.41”; at TRPM7-N1098Q, “–1.32 ± 0.20”.

B1: C-terminally truncated mouse TRPM7 (residues 1–1280), wild type (natural protein, UniProt Q923J1 1-1280, looked up)
chain: MSQKSWIESTLTKRECVYIIPSSKDPHRCLPGCQICQQLVRCFCGRLVKQHACFTASLAMKYSDVKLGEHFNQAIEEWSVEKHTEQSPTDAYGVINFQGGSHSYRAKYVRLSYDTKPEIILQLLLKEWQMELPKLVISVHGGMQKFELHPRIKQLLGKGLIKAAVTTGAWILTGGVNTGVAKHVGDALKEHASRSSRKICTIGIAPWGVIENRNDLVGRDVVAPYQTLLNPLSKLNVLNNLHSHFILVDDGTVGKYGAEVRLRRELEKTINQQRIHARIGQGVPVVALIFEGGPNVILTVLEYLQESPPVPVVVCEGTGRAADLLAYIHKQTEEGGNLPDAAEPDIISTIKKTFNFGQSEAVHLFQTMMECMKKKELITVFHIGSEDHQDIDVAILTALLKGTNASAFDQLILTLAWDRVDIAKNHVFVYGQQWLVGSLEQAMLDALVMDRVSFVKLLIENGVSMHKFLTIPRLEELYNTKQGPTNPMLFHLIRDVKQGNLPPGYKITLIDIGLVIEYLMGGTYRCTYTRKRFRLIYNSLGGNNRRSGRNTSSSTPQLRKSHETFGNRADKKEKMRHNHFIKTAQPYRPKMDASMEEGKKKRTKDEIVDIDDPETKRFPYPLNELLIWACLMKRQVMARFLWQHGEESMAKALVACKIYRSMAYEAKQSDLVDDTSEELKQYSNDFGQLAVELLEQSFRQDETMAMKLLTYELKNWSNSTCLKLAVSSRLRPFVAHTCTQMLLSDMWMGRLNMRKNSWYKVILSILVPPAILMLEYKTKAEMSHIPQSQDAHQMTMEDSENNFHNITEEIPMEVFKEVKILDSSDGKNEMEIHIKSKKLPITRKFYAFYHAPIVKFWFNTLAYLGFLMLYTFVVLVKMEQLPSVQEWIVIAYIFTYAIEKVREVFMSEAGKISQKIKVWFSDYFNVSDTIAIISFFVGFGLRFGAKWNYINAYDNHVFVAGRLIYCLNIIFWYVRLLDFLAVNQQAGPYVMMIGKMVANMFYIVVIMALVLLSFGVPRKAILYPHEEPSWSLAKDIVFHPYWMIFGEVYAYEIDVCANDSTLPTICGPGTWLTPFLQAVYLFVQYIIMVNLLIAFFNNVYLQVKAISNIVWKYQRYHFIMAYHEKPVLPPPLIILSHIVSLFCCVCKRRKKDKTSDGPKLFLTEEDQKKLHDFEEQCVEMYFDEKDDKFNSGSEERIRVTFERVEQMSIQIKEVGDRVNYIKRSLQSLDSQIGHLQDLSALTVDTLKTLTAQKASEASKVHNEITRELSISKHLAQNLID
notes: mouse TRPM7 (Trpm7 cDNA NM_021450), truncated C-terminally, protein residues 1–1280; lacks the kinase domain; A thrombin cleavage site (LVPRG) stands between GFP and TRPM7; the purification as described has no thrombin step; also called TRPM7_(Closed); TRPM7_(NTB-open); source: HEK 293S GnTI- cells, baculovirus-transduced (pEG-BacMam), purified (strep resin, SEC); in GDN or reconstituted in …
As to B1, the “stoichiometry N” value in data set [1] was 4.

B2: C-terminally truncated mouse TRPM7 (residues 1–1280) with the gain-of-function mutation N1098Q (natural protein, UniProt Q923J1 1-1280, looked up)
chain: B1 chain with N1098Q
notes: mouse TRPM7 (Trpm7 cDNA NM_021450), truncated C-terminally, protein residues 1–1280, with N1098Q; Same construct as m1 with the point mutation; a thrombin cleavage site (LVPRG) stands between GFP and TRPM7, no thrombin step is described; also called TRPM7-N1098Q; TRPM7-N1098Q_(open); source: HEK 293S GnTI- cells, baculovirus-transduced (pEG-BacMam), purified (strep resin, SEC); in GDN
With B2, the binding result in data set [1] is reported as “binds”.
